Results from ChEMBL document CHEMBL4024706 (Eur J Med Chem, 2017).

Legend:
[1] = biological target: Phosphatidylinositol 4-phosphate 5-kinase type-1 alpha (Homo sapiens) (UniProt Q99755); assay: Inhibition of wild-type human full length PIP5K1A (M1 to H562 residues) expressed in bacterial expression system assessed as residual activity at 1 uM by Kinomescan method relative to control
[2] = biological target: Serine/threonine-protein kinase ULK1 (Homo sapiens) (UniProt O75385); assay: Inhibition of wild-type human partial length ULK1 (M1 to T309 residues) expressed in mammalian expression system assessed as residual activity at 1 uM by Kinomescan method relative to control
[3] = biological target: Ribosomal protein S6 kinase alpha-2 (Homo sapiens) (UniProt Q15349); assay: Inhibition of wild-type human partial length C-terminal RSK3 kinase domain 2 (V403 to K700 residues) expressed in bacterial expression system assessed as residual activity at 1 uM by Kinomescan method relative to control
[4] = biological target: Hormonally up-regulated neu tumor-associated kinase (Homo sapiens) (UniProt P57058); assay: Inhibition of wild-type human partial length HUNK (A31 to K354 residues) expressed in bacterial expression system assessed as residual activity at 1 uM by Kinomescan method relative to control
[5] = biological target: Epithelial discoidin domain-containing receptor 1 (Homo sapiens) (UniProt Q08345); assay: Inhibition of wild-type human partial length DDR1 (R565 to V876 residues) expressed in bacterial expression system assessed as residual activity at 1 uM by Kinomescan method relative to control
[6] = biological target: SRSF protein kinase 1 (Homo sapiens) (UniProt Q96SB4); assay: Inhibition of wild-type human full length SRPK1 (M1 to S655 residues) expressed in bacterial expression system assessed as residual activity at 1 uM by Kinomescan method relative to control
[7] = biological target: Receptor-interacting serine/threonine-protein kinase 1 (Homo sapiens) (UniProt Q13546); assay: Inhibition of wild-type human partial length RIPK1 (M1 to K305 residues) expressed in bacterial expression system assessed as residual activity at 1 uM by Kinomescan method relative to control
[8] = biological target: Casein kinase II subunit alpha' (Homo sapiens) (UniProt P19784); assay: Inhibition of wild-type human full length CSNK2A2 (M1 to R350 residues) expressed in mammalian expression system assessed as residual activity at 1 uM by Kinomescan method relative to control
[9] = biological target: Calcium/calmodulin-dependent protein kinase kinase 1 (Homo sapiens) (UniProt Q8N5S9); assay: Inhibition of wild-type human partial length CAMKK1 (R65 to E414 residues) expressed in bacterial expression system assessed as residual activity at 1 uM by Kinomescan method relative to control
[10] = biological target: Activin receptor type-2A (Homo sapiens) (UniProt P27037); assay: Inhibition of wild-type human ACVR2A (V171 to T499 residues) expressed in bacterial expression system assessed as residual activity at 1 uM by Kinomescan method relative to control
[11] = biological target: Serine/threonine-protein kinase pim-3 (Homo sapiens) (UniProt Q86V86); assay: Inhibition of wild-type human partial length PIM3 (G16 to A317 residues) expressed in bacterial expression system assessed as residual activity at 1 uM by Kinomescan method relative to control
[12] = biological target: Serine/threonine-protein kinase PAK 1 (Homo sapiens) (UniProt Q13153); assay: Inhibition of wild-type human partial length PAK1 (S149 to H545 residues) expressed in bacterial expression system assessed as residual activity at 1 uM by Kinomescan method relative to control
[13] = biological target: Mitogen-activated protein kinase 8 (Homo sapiens) (UniProt P45983); assay: Inhibition of wild-type human full length JNK1 (M1 to Q384 residues) expressed in mammalian expression system assessed as residual activity at 1 uM by Kinomescan method relative to control
[14] = biological target: Phosphatidylinositol 4,5-bisphosphate 3-kinase catalytic subunit beta isoform (Homo sapiens) (UniProt P42338); assay: Inhibition of wild-type human partial length PIK3CB (P118 to S1070 residues) expressed in mammalian expression system assessed as residual activity at 1 uM by Kinomescan method relative to control
[15] = biological target: cGMP-dependent protein kinase 1 (Homo sapiens) (UniProt Q13976); assay: Inhibition of wild-type human partial length PRKG1 (L339 to F686 residues) expressed in bacterial expression system assessed as residual activity at 1 uM by Kinomescan method relative to control
[16] = biological target: Ephrin type-A receptor 3 (Homo sapiens) (UniProt P29320); assay: Inhibition of wild-type human partial length EPHA3 (D604 to K889 residues) expressed in bacterial expression system assessed as residual activity at 1 uM by Kinomescan method relative to control
[17] = biological target: Serine/threonine-protein kinase MRCK gamma (Homo sapiens) (UniProt Q6DT37); assay: Inhibition of wild-type human partial length DMPK2 (S46 to S408 residues) expressed in bacterial expression system assessed as residual activity at 1 uM by Kinomescan method relative to control
[18] = biological target: Cyclin-dependent kinase 2 (Homo sapiens) (UniProt P24941); assay: Inhibition of wild-type human full length CDK2 (M1 to L298 residues) expressed in bacterial expression system assessed as residual activity at 1 uM by Kinomescan method relative to control
[19] = biological target: Serine/threonine-protein kinase STK11 (Homo sapiens) (UniProt Q15831); assay: Inhibition of wild-type human full length LKB1 (M1 to Q433 residues) expressed in bacterial expression system assessed as residual activity at 1 uM by Kinomescan method relative to control
[20] = Tmax in Sprague-Dawley rat at 1 mg/kg, iv by LC-MS/MS method; type: ADME, organism-based; conditions: in vivo
[21] = biological target: Cyclin-dependent kinase 17 (Homo sapiens) (UniProt Q00537); assay: Inhibition of wild-type human full length PCTK2 (M1 to F523 residues) expressed in bacterial expression system assessed as residual activity at 1 uM by Kinomescan method relative to control
[22] = biological target: Ribosomal protein S6 kinase alpha-2 (Homo sapiens) (UniProt Q15349); assay: Inhibition of wild-type human partial length N-terminal RSK3 kinase domain 1 (M1 to Q385 residues) expressed in bacterial expression system assessed as residual activity at 1 uM by Kinomescan method relative to control
[23] = biological target: Proto-oncogene tyrosine-protein kinase Src (Homo sapiens) (UniProt P12931); assay: Inhibition of wild-type human partial length SRC (L240 to L536 residues) expressed in bacterial expression system assessed as residual activity at 1 uM by Kinomescan method relative to control
[24] = biological target: Serine/threonine-protein kinase 16 (Homo sapiens) (UniProt O75716); assay: Inhibition of wild-type human partial length STK16 (G11 to I305 residues) expressed in bacterial expression system assessed as residual activity at 1 uM by Kinomescan method relative to control
[25] = biological target: Tyrosine-protein kinase BTK (Homo sapiens, UniProt Q06187, C481S); assay: Irreversible inhibition of recombinant full length 3'-FLAG-tagged BTK C481S mutant (unknown origin) expressed in HEK293T cells assessed as reduction in Y223 phosphorylation measured after 4 hrs by Western blot method; type: cell-based
[26] = biological target: Serine/threonine-protein kinase 32A (Homo sapiens) (UniProt Q8WU08); assay: Inhibition of wild-type human full length YANK1 (M1 to L396 residues) expressed in mammalian expression system assessed as residual activity at 1 uM by Kinomescan method relative to control

Compound: C=CC(=O)Nc1cc(Nc2cc(-c3cccc(NC(=O)c4ccc(C(C)(C)C)cc4)c3C)cn(C)c2=O)ccc1C(=O)N1CCOCC1
- Activity [1]: 95%
- Activity [2]: 100%
- Activity [3]: 83%
- Activity [4]: 77%
- Activity [5]: 100%
- Activity [6]: 100%
- Activity [7]: 100%
- Activity [8]: 100%
- Activity [9]: 100%
- Activity [10]: 90%
- Activity [11]: 98%
- Activity [12]: 90%
- Activity [13]: 100%
- Activity [14]: 100%
- Activity [15]: 95%
- Activity [16]: 95%
- Activity [17]: 100%
- Activity [18]: 99%
- Activity [19]: 98%
- Tmax [20]: 1.02 min
- Activity [21]: 100%
- Activity [22]: 92%
- Activity [23]: 99%
- Activity [24]: 99%
- EC50 [25]: > 100 nM
- Activity [26]: 83%
